From US20140148477A1, “ANIMAL ECTOPARASITE-CONTROLLING AGENT AND METHOD FOR PREVENTING OR TREATING INFECTION IN ANIMALS CAUSED BY PARASITES BY USING THE CONTROLLING AGENT” (OTSUKA AGRITECHNO CO., LTD., priority 2011, published 2014)

Assay: Dissolution in acetone when preparing the test solution
Type: physicochemical
Conditions: acetone added so that the concentration was 0.5 mg/ml
Experimental: Acetone was added to each of Test Compounds 1 to 17 so that the concentration was 0.5 mg/ml, thereby preparing solutions.

solubility in acetone: not dissolved in acetone
SMILES: COC(Cn1nc(-c2cc(F)cc(F)c2)cc1O[C@@H]1CCN(c2ccc(C(F)(F)F)cn2)C[C@@H]1C)OC [Test Compound 15]
